Test results from ChEMBL document CHEMBL5055659, “Photosensitive and Photoswitchable TRPA1 Agonists Optically Control Pain through Channel Desensitization” (J Med Chem, 2021).
pEC50: −log10 of the molar value. Active and inactive are the calls of the source. No cut-off for these calls is given here.

Assays:
[1] = target: T1, Transient receptor potential cation channel subfamily A member 1 (Homo sapiens, UniProt O75762); test: Inhibition of fluorescent probe A1CA binding to TRPA1 (unknown origin) expressed in CHO cells assessed as decrease in fluorescent intensity at 10 uM incubated for 2 mins by confocal fluorescence microscopy; assay type: cell-based
T1 sequence (O75762 whole entry): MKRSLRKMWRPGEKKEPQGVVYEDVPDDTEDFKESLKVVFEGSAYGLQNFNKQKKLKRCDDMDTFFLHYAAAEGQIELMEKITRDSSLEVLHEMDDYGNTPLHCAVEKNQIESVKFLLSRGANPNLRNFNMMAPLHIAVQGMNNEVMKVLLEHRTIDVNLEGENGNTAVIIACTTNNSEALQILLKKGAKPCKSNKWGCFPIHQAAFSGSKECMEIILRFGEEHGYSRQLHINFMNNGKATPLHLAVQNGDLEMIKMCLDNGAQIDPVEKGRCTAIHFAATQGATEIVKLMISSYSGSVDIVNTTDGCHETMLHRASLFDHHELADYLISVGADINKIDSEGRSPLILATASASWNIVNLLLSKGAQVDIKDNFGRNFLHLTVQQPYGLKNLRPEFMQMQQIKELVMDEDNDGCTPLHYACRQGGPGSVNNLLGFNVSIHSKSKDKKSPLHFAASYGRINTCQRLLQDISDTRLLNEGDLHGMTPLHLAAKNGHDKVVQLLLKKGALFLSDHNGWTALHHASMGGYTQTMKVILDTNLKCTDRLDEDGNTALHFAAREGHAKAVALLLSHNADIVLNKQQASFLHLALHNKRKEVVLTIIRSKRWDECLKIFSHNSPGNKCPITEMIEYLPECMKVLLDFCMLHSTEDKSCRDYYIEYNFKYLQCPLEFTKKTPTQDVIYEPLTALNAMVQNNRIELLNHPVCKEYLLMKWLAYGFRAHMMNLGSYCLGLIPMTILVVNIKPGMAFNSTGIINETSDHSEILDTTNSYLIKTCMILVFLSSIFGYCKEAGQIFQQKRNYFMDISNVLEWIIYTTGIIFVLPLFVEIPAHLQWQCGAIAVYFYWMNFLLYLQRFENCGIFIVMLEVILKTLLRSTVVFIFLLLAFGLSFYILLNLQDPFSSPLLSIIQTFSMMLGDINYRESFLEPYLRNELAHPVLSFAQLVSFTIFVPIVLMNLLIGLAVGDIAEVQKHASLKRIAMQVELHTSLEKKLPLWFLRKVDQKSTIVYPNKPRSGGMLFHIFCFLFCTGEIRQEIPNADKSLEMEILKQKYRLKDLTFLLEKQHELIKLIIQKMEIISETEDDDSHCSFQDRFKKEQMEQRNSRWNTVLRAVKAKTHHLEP

[2] = target: T1, Transient receptor potential cation channel subfamily A member 1; test: Agonist activity at human TRPA1 expressed in HEK293 cells assessed as induction of Ca2+ influx at 10 uM measured under dark by Fluo-8 based calcium imaging assay; assay type: cell-based
[3] = target: T1, Transient receptor potential cation channel subfamily A member 1; test: Agonist activity at human TRPA1 expressed in HEK293 cells assessed as induction of Ca2+ influx at 10 uM measured under 365 nm UV irradiation by Fluo-8 based calcium imaging assay; assay type: cell-based; conditions: filed as agonist
[4] = test system: HEK293; test: Induction of Ca2+ influx in TRPA1 untransfected HEK293 cells at 10 uM measured under 365 nm UV irradiation by Fluo-8 based calcium imaging assay; assay type: functional, cell-based; conditions: Homo sapiens
[5] = Drug metabolism in bath solution assessed as photochemical switch by measuring cis-isoform at 50 uM measured after exposure to 365 nm UV irradiation by HPLC analysis; assay type: physicochemical
[6] = Photostability of the compound in bath solution by measuring reversible photo-isomerism measured after exposure to 365 to 530 nm UV irradiation by UV spectra; assay type: physicochemical
[7] = Drug metabolism in cell external solution assessed as thermal isomerization by measuring half life at 50 uM at 25 degC by UV-vis spectroscopy; assay type: ADME
[8] = target: Transient receptor potential cation channel subfamily V member 4 (Homo sapiens) (UniProt Q9HBA0); test: Effect on TRPV4 (unknown origin) transfected in CHO cells assessed as activation of channel current in presence of 365 nm UV irradiation by whole-cell patch clamp electrophysiology; assay type: cell-based
Chain of Transient receptor potential cation channel subfamily V member 4 (Homo sapiens) (Q9HBA0 whole entry, canonical isoform): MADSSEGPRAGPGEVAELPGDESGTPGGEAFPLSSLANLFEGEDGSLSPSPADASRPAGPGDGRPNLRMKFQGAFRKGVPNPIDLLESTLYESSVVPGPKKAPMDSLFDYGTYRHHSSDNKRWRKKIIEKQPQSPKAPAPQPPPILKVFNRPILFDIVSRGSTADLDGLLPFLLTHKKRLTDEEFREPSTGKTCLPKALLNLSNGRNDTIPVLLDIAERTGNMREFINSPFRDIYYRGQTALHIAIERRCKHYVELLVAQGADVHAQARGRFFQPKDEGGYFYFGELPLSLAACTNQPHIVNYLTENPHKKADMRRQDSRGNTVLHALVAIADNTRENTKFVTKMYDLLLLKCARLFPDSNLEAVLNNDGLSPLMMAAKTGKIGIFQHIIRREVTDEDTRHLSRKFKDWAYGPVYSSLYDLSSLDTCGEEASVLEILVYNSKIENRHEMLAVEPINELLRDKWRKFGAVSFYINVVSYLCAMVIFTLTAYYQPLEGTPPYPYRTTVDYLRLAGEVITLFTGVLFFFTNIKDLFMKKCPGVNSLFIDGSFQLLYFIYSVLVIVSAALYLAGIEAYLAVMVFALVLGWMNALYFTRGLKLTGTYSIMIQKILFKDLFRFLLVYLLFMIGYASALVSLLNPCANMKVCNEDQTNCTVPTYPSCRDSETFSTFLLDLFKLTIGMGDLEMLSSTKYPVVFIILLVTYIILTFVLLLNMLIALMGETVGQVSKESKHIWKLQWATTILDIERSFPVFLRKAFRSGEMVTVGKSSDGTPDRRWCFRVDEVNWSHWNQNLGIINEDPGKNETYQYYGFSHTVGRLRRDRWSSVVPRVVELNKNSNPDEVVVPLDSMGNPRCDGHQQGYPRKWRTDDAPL

[9] = Drug metabolism in bath solution assessed as photochemical switch by measuring trans-isoform reversal at 50 uM measured after exposure to 415 nm UV irradiation by HPLC analysis; assay type: physicochemical
[10] = target: Sodium channel protein type 5 subunit alpha (Homo sapiens, UniProt Q14524); test: Effect on Nav1.5 (unknown origin) transfected in CHO cells assessed as activation of channel current in presence of 365 nm UV irradiation by whole-cell patch clamp electrophysiology; assay type: cell-based
Chain of Sodium channel protein type 5 subunit alpha (Q14524 whole entry): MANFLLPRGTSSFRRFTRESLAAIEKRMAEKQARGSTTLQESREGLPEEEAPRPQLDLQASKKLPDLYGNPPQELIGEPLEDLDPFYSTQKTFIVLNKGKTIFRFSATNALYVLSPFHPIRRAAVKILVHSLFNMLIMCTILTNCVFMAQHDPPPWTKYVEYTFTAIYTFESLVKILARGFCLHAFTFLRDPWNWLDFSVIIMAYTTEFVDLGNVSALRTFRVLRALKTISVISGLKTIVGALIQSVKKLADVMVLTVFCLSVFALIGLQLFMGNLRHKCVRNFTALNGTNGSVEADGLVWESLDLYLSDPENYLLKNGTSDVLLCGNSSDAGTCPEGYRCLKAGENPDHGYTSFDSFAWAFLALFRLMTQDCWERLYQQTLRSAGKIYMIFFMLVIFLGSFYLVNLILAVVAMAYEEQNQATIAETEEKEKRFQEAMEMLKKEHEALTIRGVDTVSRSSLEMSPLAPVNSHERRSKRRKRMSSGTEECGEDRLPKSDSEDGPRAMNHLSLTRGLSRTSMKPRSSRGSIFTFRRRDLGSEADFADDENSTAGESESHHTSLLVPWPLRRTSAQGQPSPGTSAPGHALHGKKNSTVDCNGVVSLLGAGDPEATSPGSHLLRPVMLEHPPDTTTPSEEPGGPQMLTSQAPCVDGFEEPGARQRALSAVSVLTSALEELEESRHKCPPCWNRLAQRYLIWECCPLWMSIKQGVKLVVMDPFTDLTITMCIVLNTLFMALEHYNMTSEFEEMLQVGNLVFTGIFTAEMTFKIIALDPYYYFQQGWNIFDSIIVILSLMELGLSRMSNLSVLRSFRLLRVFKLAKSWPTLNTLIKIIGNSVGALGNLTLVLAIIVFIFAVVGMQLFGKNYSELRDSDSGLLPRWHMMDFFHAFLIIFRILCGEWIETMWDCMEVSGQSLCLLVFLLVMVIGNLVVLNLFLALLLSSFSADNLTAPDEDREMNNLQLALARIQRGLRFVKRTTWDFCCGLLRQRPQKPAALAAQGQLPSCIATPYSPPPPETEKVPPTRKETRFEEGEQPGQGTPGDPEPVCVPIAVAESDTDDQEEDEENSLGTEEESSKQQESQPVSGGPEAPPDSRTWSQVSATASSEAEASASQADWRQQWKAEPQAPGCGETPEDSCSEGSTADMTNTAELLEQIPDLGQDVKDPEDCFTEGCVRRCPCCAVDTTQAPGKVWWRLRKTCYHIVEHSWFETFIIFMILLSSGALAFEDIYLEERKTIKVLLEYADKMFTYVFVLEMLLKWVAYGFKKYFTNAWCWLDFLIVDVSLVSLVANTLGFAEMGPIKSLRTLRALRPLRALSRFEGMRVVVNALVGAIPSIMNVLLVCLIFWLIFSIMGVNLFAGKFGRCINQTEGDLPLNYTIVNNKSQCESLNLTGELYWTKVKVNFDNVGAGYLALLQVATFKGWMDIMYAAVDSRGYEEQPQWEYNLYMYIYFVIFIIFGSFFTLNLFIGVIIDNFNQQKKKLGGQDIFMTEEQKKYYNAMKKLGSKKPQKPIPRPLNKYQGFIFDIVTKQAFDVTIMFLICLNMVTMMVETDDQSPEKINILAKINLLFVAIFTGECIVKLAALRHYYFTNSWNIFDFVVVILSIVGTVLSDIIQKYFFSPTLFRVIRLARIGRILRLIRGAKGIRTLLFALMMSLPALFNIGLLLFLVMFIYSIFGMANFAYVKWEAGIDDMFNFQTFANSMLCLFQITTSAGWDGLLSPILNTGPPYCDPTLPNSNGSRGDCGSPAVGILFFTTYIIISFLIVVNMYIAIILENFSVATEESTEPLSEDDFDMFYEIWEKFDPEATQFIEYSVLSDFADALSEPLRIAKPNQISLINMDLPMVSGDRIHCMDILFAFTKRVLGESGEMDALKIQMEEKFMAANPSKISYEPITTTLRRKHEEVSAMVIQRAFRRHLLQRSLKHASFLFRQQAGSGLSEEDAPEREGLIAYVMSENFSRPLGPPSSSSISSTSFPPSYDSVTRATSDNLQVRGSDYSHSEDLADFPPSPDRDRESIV

[11] = target: T2, Transient receptor potential cation channel subfamily V member 3 (Homo sapiens) (UniProt Q8NET8); test: Effect on TRPV3 (unknown origin) transfected in CHO cells assessed as activation of channel current in presence of 365 nm UV irradiation by whole-cell patch clamp electrophysiology; assay type: cell-based
T2 sequence (whole entry): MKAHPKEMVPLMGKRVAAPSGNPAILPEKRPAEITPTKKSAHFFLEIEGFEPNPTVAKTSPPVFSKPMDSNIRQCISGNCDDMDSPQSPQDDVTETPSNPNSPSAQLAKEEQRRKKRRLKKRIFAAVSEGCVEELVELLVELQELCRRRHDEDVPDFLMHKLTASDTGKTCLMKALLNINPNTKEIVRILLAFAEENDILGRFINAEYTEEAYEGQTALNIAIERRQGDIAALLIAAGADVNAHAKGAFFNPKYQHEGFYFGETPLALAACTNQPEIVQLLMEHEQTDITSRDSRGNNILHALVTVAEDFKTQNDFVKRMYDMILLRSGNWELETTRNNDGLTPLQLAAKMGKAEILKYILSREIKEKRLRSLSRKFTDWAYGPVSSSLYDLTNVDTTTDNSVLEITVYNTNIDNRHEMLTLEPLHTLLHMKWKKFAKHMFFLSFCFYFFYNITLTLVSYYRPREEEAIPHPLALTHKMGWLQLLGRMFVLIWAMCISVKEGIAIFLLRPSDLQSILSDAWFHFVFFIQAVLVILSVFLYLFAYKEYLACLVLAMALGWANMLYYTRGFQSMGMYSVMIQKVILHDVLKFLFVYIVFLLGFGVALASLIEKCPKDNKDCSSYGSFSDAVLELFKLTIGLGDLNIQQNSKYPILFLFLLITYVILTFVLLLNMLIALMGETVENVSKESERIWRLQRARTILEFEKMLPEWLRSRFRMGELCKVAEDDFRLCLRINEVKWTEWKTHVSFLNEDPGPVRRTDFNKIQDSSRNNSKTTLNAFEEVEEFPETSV

[12] = species on record: Mus musculus; test: Antinociceptive activity against capsaicin-induced wild type C57BL/6J mouse left check pain model assessed as reduction in frequency of wiping within 10 mins at 1 mM smeared on left check followed by exposed to 365 nm UV light; assay type: functional, organism-based
[13] = target: Sodium channel protein type 4 subunit alpha (Homo sapiens) (UniProt P35499); test: Effect on Nav1.4 (unknown origin) transfected in CHO cells assessed as activation of channel current in presence of 365 nm UV irradiation by whole-cell patch clamp electrophysiology; assay type: cell-based
[14] = species on record: Mus musculus; test: Antinociceptive activity against capsaicin-induced wild type C57BL/6J mouse left check pain model assessed as reduction in frequency of wiping within 10 mins at 1 mM smeared on left check; assay type: functional, organism-based
[15] = species on record: Mus musculus; test: Antinociceptive activity against capsaicin-induced […] knock-out C57BL/6J mouse left check pain model assessed as reduction in frequency of wiping within 10 mins at 1 mM smeared on left check followed by exposed to 365 nm UV light; assay type: functional, organism-based
[16] = target: T1, Transient receptor potential cation channel subfamily A member 1; test: Agonist activity at TRPA1 expressed in CHO cells assessed as activation of channel current in presence of 330 - 380 nm UV irradiation by whole-cell patch clamp electrophysiology; assay type: cell-based
[17] = Drug metabolism in cyclohexane assessed as thermal isomerization by measuring half life at 50 uM at 25 degC by UV-vis spectroscopy; assay type: physicochemical
[18] = target: Transient receptor potential cation channel subfamily A member 1 (Mus musculus) (UniProt Q8BLA8); test: In vivo induction of TRPA1 channel desensitization in capsaicin-induced wild type C57BL/6J mouse left check pain model assessed as macroscopic current desensitization at 300 uM treated 11 consecutive repeat measured after exposed to 365 nm UV light; assay type: functional, organism-based
Chain of Transient receptor potential cation channel subfamily A member 1 (Mus musculus) (Q8BLA8 whole entry): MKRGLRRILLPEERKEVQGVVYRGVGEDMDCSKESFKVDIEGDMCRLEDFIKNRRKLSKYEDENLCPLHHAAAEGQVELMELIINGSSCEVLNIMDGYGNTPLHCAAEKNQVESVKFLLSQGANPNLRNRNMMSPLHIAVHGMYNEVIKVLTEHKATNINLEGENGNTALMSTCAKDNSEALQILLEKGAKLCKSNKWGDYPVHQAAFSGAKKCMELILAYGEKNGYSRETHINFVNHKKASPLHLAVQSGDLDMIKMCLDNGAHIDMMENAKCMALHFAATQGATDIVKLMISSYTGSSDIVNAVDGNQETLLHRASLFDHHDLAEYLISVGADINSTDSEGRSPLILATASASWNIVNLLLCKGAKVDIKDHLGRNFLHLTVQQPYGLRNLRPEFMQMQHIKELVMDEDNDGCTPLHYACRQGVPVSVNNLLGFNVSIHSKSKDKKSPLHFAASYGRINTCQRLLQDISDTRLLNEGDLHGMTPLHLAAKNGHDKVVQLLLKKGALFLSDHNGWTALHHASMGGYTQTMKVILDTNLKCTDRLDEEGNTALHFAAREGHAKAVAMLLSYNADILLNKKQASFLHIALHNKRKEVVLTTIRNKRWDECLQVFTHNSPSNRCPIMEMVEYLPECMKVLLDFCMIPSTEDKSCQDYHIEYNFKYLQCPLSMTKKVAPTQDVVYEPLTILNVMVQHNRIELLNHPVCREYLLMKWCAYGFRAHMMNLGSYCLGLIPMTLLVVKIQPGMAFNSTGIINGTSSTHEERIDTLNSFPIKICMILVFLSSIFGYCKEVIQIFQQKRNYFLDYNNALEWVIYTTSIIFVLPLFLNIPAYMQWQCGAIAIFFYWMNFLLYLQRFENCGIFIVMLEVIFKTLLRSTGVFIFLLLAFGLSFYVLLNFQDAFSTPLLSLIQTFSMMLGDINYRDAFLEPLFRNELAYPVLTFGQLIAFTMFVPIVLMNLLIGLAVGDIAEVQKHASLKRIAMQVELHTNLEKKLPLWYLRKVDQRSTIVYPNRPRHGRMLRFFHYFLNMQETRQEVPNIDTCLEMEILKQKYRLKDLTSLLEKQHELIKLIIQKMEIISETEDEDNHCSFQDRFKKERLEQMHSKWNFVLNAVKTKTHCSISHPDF

[19] = target: T1, Transient receptor potential cation channel subfamily A member 1; test: Agonist activity at TRPA1 expressed in CHO cells assessed as reversal of activated channel current in presence of 410 - 420 nm UV irradiation at 100 uM by whole-cell patch clamp electrophysiology; assay type: cell-based
[20] = target: T1, Transient receptor potential cation channel subfamily A member 1; test: Agonist activity at human TRPA1 expressed in HEK293 cells assessed as induction of Ca2+ influx at 300 uM measured under 365 nm UV irradiation by Fluo-8 based calcium imaging assay; assay type: cell-based; conditions: filed as agonist

## Oc1ccc(/N=N/c2ccccc2)cc1
[1]
  inhibition: Active

## Nc1cccc(/N=N/c2ccccc2)c1
[1]
  inhibition: Active
[2]
  Activity: inactive
[3]
  Activity: Active
[4]
  Activity: inactive
[5]
  Drug metabolism: Metabolite_Notdetected
[6]
  Stability: Stable

## Clc1cc(/N=N/c2ccccc2)ccn1
[7]
  half-life at 50 µM: 9.67 min
[8]
  Activity: inactive
[9]
  Drug metabolism: Metabolite_Detected
[1]
  inhibition: Active
[10]
  Activity: Not Active
[11]
  Activity: inactive
[2]
  Activity: inactive
[12]
  Activity: Active
[3]
  Activity: Active
[4]
  Activity: inactive
[13]
  Activity: inactive
[14]
  Activity: inactive
[15]
  Activity: inactive
[5]
  Drug metabolism: Metabolite_Detected
[6]
  Stability: Stable
[16]
  pEC50: 5.26
[17]
  half-life at 50 µM: 5.3 min
[18]
  Activity: Active

## c1ccc(/N=N/c2ccncc2)cc1
[1]
  inhibition: Active

## O=C(O)c1ccc(/N=N/c2ccccc2)cc1
[7]
  half-life at 50 µM: 6.55 min
[8]
  Activity: inactive
[9]
  Drug metabolism: Metabolite_Detected
[1]
  inhibition: Active
[10]
  Activity: Not Active
[11]
  Activity: inactive
[2]
  Activity: inactive
[12]
  Activity: Active
[3]
  Activity: Active
[4]
  Activity: inactive
[13]
  Activity: inactive
[14]
  Activity: inactive
[15]
  Activity: inactive
[5]
  Drug metabolism: Metabolite_Detected
[6]
  Stability: Stable
[16]
  pEC50: 4.61
[17]
  half-life at 50 µM: 1.35 min
[18]
  Activity: Active

## Oc1cccc(/N=N/c2ccccc2)c1
[7]
  half-life at 50 µM: 2.43 min
[9]
  Drug metabolism: Metabolite_Detected
[1]
  inhibition: Active
[2]
  Activity: inactive
[12]
  Activity: inactive
[3]
  Activity: Active
[4]
  Activity: inactive
[5]
  Drug metabolism: Metabolite_Detected
[19]
  Activity: inactive
[6]
  Stability: Stable
[16]
  pEC50: 3.98
[17]
  half-life at 50 µM: 1.65 min

## C=CCN=C=S
[20]
  Activity: Active

## C[C@H](CCC(=O)O)C[C@H](C)C[C@H](C)C(=O)/C=C(\O)[C@H](C)C[C@H](C)C/C=C/[C@@H](C)[C@@H](O)[C@@H](C)[C@@H](O)C[C@@H]1CC[C@@](C)([C@H]2CC[C@@](C)([C@@H](C)O)O2)O1
[3]
  Activity: Active

## Cc1cnccc1/N=N/c1ccccc1
[1]
  inhibition: Active
[2]
  Activity: inactive
[12]
  Activity: inactive
[3]
  Activity: Active
[4]
  Activity: inactive
[5]
  Drug metabolism: Metabolite_Notdetected
[6]
  Stability: Stable
[16]
  pEC50: 4.72
[17]
  half-life at 50 µM: 1.67 min
